pKi: −log10 of the molar value.
biological target: PIK3CG (human) (UniProt P48736); experiment: Inhibition of PIK3CG Kinase Activity
Sequence (P48736 whole entry, looked up): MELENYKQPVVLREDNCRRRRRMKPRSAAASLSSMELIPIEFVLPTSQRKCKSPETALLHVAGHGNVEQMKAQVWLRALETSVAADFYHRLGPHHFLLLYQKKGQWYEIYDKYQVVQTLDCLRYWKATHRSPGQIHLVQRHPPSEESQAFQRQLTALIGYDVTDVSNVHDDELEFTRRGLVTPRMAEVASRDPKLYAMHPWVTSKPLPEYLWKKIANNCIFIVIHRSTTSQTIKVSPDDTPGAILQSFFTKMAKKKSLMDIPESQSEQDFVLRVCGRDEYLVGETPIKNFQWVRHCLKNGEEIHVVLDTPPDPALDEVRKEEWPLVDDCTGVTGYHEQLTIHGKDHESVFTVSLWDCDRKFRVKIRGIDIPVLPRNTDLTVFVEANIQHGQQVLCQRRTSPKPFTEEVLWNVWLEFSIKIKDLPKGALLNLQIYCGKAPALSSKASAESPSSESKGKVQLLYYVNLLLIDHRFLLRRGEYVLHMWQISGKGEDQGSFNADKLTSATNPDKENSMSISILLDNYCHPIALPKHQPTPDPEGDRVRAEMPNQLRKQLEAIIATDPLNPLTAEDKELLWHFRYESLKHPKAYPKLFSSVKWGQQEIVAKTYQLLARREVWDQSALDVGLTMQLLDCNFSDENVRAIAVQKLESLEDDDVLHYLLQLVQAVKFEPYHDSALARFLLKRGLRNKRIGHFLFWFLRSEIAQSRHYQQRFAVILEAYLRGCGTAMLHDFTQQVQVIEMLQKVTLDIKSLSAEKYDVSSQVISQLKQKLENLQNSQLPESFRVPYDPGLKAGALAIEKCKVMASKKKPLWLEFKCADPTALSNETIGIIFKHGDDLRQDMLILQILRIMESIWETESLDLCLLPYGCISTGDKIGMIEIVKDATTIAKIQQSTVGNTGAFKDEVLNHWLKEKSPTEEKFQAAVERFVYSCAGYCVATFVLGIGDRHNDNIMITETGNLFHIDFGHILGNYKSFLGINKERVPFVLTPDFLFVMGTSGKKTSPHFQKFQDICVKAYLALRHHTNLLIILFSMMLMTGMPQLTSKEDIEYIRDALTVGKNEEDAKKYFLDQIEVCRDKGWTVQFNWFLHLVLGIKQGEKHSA

Row | Compound | pKi
1 | COc1cc(-c2cc(C)c3c(n2)[C@@H](C)N(c2cnn(C[C@@H](C)O)c2)C3=O)cnc1OC | > 7.00
2 | COc1cc(-c2ccc3c(n2)C(C)N(c2ccn(CC(C)(C)O)n2)C3=O)cnc1OC (centres undefined) | > 7.00
3 | COc1cc(-c2cc(C)c3c(n2)CN(c2cnccn2)C3=O)cnc1OC | > 7.00
4 | COc1cc(-c2ccc3c(n2)C(C)(C)N(c2cnn(CC#N)c2)C3=O)cnc1OC | > 7.00
5 | COc1cc(-c2ccc3c(n2)CN(c2cnn([C@@H](CO)C(F)(F)F)c2)C3=O)cnc1OC | > 7.00
6 | COc1cc(-c2cc(C)c3c(n2)CN(c2ccn(C)n2)C3=O)cnc1OC | > 7.00
7 | COc1cc(-c2ccc3c(n2)CN(c2ccc(N4CCC(CO)CC4)nc2)C3=O)cnc1OC | > 7.00
8 | COc1cc(-c2cc(C)c3c(n2)CN(c2cnn(C(C)(C)C#N)c2)C3=O)cnc1OC | > 7.00
9 | COc1cc(-c2ccc3c(n2)CN(c2ccn(CC(F)(F)F)n2)C3=O)cnc1OC | > 7.00
10 | COc1cc(-c2ccc3c(n2)CN(c2cnn(CCN(C)C)c2)C3=O)cnc1OC | 6.31 to 7.00
11 | COc1cc(-c2ccc3c(n2)CN(c2ccnc(C(C)(C)C#N)c2)C3=O)cnc1OC | > 7.00
12 | COc1cc(-c2cc(C)c3c(n2)C(C)N(c2cnn(CC(F)(F)F)c2)C3=O)cnc1OC(C)C (centres undefined) | > 7.00
13 | CCn1nc(N2Cc3cc(-c4cnc(OC)c(OC)c4)ccc3C2=O)cc1C | 6.31 to 7.00
14 | CCNC(=O)c1cncc(-c2cc(C)c3c(n2)CN(c2ccn([C@H]4CCOC4)n2)C3=O)c1 | 6.31 to 7.00
15 | COCn1cc(N2Cc3nc(-c4cnc(OC)c(OC)c4)ccc3C2=O)cn1 | > 7.00
16 | COc1cc(-c2ccc3c(n2)C(C)N(c2ccn(C[C@@H](C)O)n2)C3=O)cnc1OC (some centres undefined) | > 7.00
17 | COc1cc(-c2ccc3c(n2)C(C)N(c2cncc(C(O)C(F)(F)F)c2)C3=O)cnc1OC (centres undefined) | > 7.00
18 | CCCOc1cc(-c2cc(C)c3c(n2)CN(c2ccn(C4COC4)n2)C3=O)cnc1OC | > 7.00
19 | COc1cc(-c2ccc3c(n2)C(C)N(c2cncc(C(C)(C)C#N)c2)C3=O)cnc1OC (centres undefined) | 6.31 to 7.00
20 | COc1ncc(-c2cc(C)c3c(n2)C(C)(C)N(c2cnn(CC(F)(F)F)c2)C3=O)cc1C(=O)N(C)C | > 7.00

Row | Compound | pKi
21 | COc1cc(-c2ccc3c(n2)CN(c2cncc(CC#N)c2)C3=O)cnc1OC | > 7.00
22 | COc1cc(-c2ccc3c(n2)CN(c2cnn(CC4(C)COC4)c2)C3=O)cnc1OC | > 7.00
23 | COc1cc(-c2cc(C)c3c(n2)CN(c2ccn(CC(F)(F)F)n2)C3=O)cnc1OC | > 7.00
24 | COc1cc(-c2ccc3c(n2)[C@@H](C)N(c2cn(CC(F)(F)F)cn2)C3=O)cnc1OC | > 7.00
25 | COc1ncc(-c2cc(C)c3c(n2)C(C)N(c2cnn(CC(F)(F)F)c2)C3=O)cc1C(=O)O (centres undefined) | > 7.00
26 | N#CCn1cc(N2Cc3cc(-c4cnc5ccccc5c4)ccc3C2=O)cn1 | 6.31 to 7.00
27 | COc1cc(-c2ccc3c(n2)CN(c2ccc(N4CCOCC4)nc2)C3=O)cnc1OC | 6.31 to 7.00
28 | COc1cc(-c2cc(C)c3c(n2)CN(c2ccc(C(C)C)nc2)C3=O)cnc1OC | > 7.00
29 | CCOC1c2nc(-c3cnc(OC)c(OC)c3)cc(C)c2C(=O)N1c1cnn(CC(F)(F)F)c1 (centres undefined) | > 7.00
30 | COc1ncc(-c2cc(C)c3c(n2)CN(c2cn[nH]c2)C3=O)cc1OCC(F)(F)F | > 7.00
31 | Cc1cc(-c2cnc3ccccc3c2)nc2c1C(=O)N(c1cnn(CC(F)(F)F)c1)C2 | > 7.00
32 | COc1cc(-c2cc(C)c3c(n2)CN(c2ccnc(C#N)c2)C3=O)cnc1OC | > 7.00
33 | COc1cncc(N2Cc3nc(-c4cnc(OC)c(OC)c4)cc(C)c3C2=O)c1 | > 7.00
34 | COc1cc(-c2cc(C)c3c(n2)CN(c2cnn(C)c2)C3=O)cnc1OC | > 7.00
35 | CCOc1cc(-c2ccc3c(c2)CN(c2cnn(CC)c2)C3=O)cnc1OC | 6.31 to 7.00
36 | CC[C@]1(OC)c2nc(-c3cnc(OC)c(OC)c3)cc(C)c2C(=O)N1c1cnn(CC(F)(F)F)c1 | > 7.00
37 | COc1cc(-c2ccc3c(n2)CN(c2cnn(CCC(=O)O)c2)C3=O)cnc1OC | > 7.00
38 | CCn1cc(N2Cc3nc(-c4cnc(OC)c(OC(C)C)c4)cc(C)c3C2=O)cn1 | > 7.00
39 | COc1cc(-c2ccc3c(c2)CN(c2cccnc2)C3=O)cnc1OC | 6.31 to 7.00

Reference: the Kinase Knowledgebase extract (Sharma et al. 2016)
